Data: the NIST ThermoML archive (doi:10.1016/j.tca.2013.03.018)

Details: Liquid, DSC

CCCCCCCCO [octan-1-ol]
Details	vapor or sublimation pressure [kPa]
333.69 K	0.2242
333.97 K	0.2242
334.46 K	0.2376
341.76 K	0.3855
342.1 K	0.3855
343.33 K	0.372
344.5 K	0.3855
348.2 K	0.5736
348.72 K	0.587
349.1 K	0.6004
349.38 K	0.587
352.09 K	0.7483
352.98 K	0.802
353.96 K	0.8087
354.96 K	0.7886
357.9 K	1.071
357.94 K	1.057
357.99 K	1.057
358.41 K	1.071
362.88 K	1.434
363.3 K	1.447
363.51 K	1.46
364.35 K	1.474
369.69 K	2.105
369.76 K	2.092
369.9 K	2.132
370 K	2.132
379.04 K	3.436
379.35 K	3.489
379.45 K	3.489
379.49 K	3.489
387.2 K	5.169
387.28 K	5.156
387.87 K	5.182
387.92 K	5.169
407.24 K	13.57
408.44 K	13.58
408.9 K	13.55
409.3 K	13.55
435.48 K	40.47
438.31 K	40.53
438.58 K	40.53
438.8 K	40.53
468.15 K	101.4
468.47 K	101.4
